Measured values from patent US10160744B2, “Quinoline compounds suitable for treating disorders that respond to the modulation of the serotonin 5-HT6 receptor” (Abbvie Deutschland GmbH & Co. KG, priority 2016, dated 2018).
pKi: −log10 of the molar value.

Experiments:
h-5-HT6 receptor = molecular target: T1, h-5-HT6 receptor (Homo sapiens, UniProt P50406); assay: 5-HT6 receptor binding assay (displacement of [3H]-LSD); details: cloned human 5-HT6 receptor, HEK293 membranes, 1 nM [3H]-LSD
T1 construct: expressed in transfected cells
Procedure: Displacement of radioligands binding to the following cloned human receptors
1. Preparation of Membranes by Ultrasonic Treatment and Differential Centrifugation
Cells from stable clonal cell lines expressing the corresponding receptor (5-HT6, α1-adrenergic, dopamine D2 or histamine H1 receptors) were washed with PBS (w/o Ca^++, Mg^++) and harvested in PBS with 0.02% EDTA. The cells were collected by centrifugation at 500 g for 10 min. at 4° C., washed with PBS and centrifuged (500 g, 10 min. 4° C.). The pellets were stored at −80° C. until use. For membrane preparation, the thawed cell pellet was resuspended in ice-cold sucrose buffer (0.25 M sucrose, 10 mM Hepes (pH 7.4), 1 mM Phenylmethylsulfonyl fluoride (PMSF) in DMSO, 5 μg/ml Pepstatin-A, 3 mM EDTA, 0.025% Bacitracin) and homogenized with a Branson Sonifier W-250 (Settings: Timer 4; Output Control 3; Duty Cycle constant; 2 to 3 cycles). Cell disruption was checked with the aid of a microscope. Remaining unbroken cells were pelleted at 1.000 g for 10 min. at 4° C. The sucrose buffer supernatant was then centrifuged at 60.000 g for 1 h at 4° C. (Beckman Ultrazentrifuge XL 80). The pellet was resuspended in 30 ml ice-cold Tris buffer (20 mM TRIS (pH 7.4), 5 μg/ml Pepstatin A, 0.1 mM PMSF, 3 mM EDTA) by pipetting through a 10 ml serological pipet and centrifuged for 1 h at 4° C. at 60.000 g. A final resuspension was performed in a small volume of ice-cold Tris buffer (see above) by pressing through a serological pipet followed by ultrasonic treatment with a Branson Sonifier W-250 (Settings: Timer 1; Output Control 3; Duty Cycle constant; 1 cycle). Protein concentration was determined (BCA-Kit; Pierce) and aliquots stored at −80° C. or in liquid nitrogen for long-term storage.
2. Receptor Binding Experiments
All receptor binding experiments were carried out in the corresponding assay buffer in a total volume of 200 μl in the presence of various concentrations of test compound (10^−5 M to 10^−9 M, tenfold serial dilution, duplicate determinations). The assays were terminated by filtration on polyethylenimine (PEI 0.1% or 0.3%) presoaked Packard Unifilter Plates (GF/C or GF/B) with a Tomtec MachIII U 96 well-plate harvester. After the plates had been dried for 2 h at 55° C. in a drying chamber scintillation cocktail (BetaPlate Scint; PerkinElmer) was added. Radioactivity was measured in a Microbeta Trilux two hours after the addition of the scintillation mixture. Data derived from liquid scintillation counting were analysed by iterative non-linear regression analysis with the use of the Statistical Analysis System (SAS): a program similar to “LIGAND” as described by Munson and Rodbard (Analytical Biochemistry 107, 220-239 (1980).
a) 5-HT6 Receptor Binding Assay
HEK293 cells stably expressing the h-5-HT6 receptor (NCBI Reference Sequence XM 001435) were cultured in RPMI1640 medium supplemented with 25 mM HEPES, 10% fetal calf serum and 1-2 mM glutamine. The membrane preparation was performed as described in section 1. […] Non-specific binding was defined with 1 μM methiothepin. The binding reaction was carried out for 3.5 h at room temperature. During the incubation, the plates were shaken on a plate shaker at 100 rpm and terminated by filtration on Packard Unifilter GF/C (0.1% PEI) plates, followed by 2 wash cycles with ice-cold 50 mM Tris-HCl, 5 mM CaCl2.
Data derived from liquid scintillation counting were analyzed by iterative non-linear regression analysis with the use of the Statistical Analysis System (SAS): a program similar to “LIGAND” as described by Munson and Rodbard (Anal. Biochem. 1980, 107, 220-239). Fitting was performed according to formulae described by Feldman (Anal. Biochem. 1972, 48, 317-338). IC50, nH and Ki values were expressed as geometrical mean.

[1] = Metabolic stability in human liver microsomes (microsomal clearance); assay type: in vitro ADME; details: pH 7.4; human liver microsomes 0.25 mg protein/mL, 0.5 μM compound, NADPH, 37° C.; read-out: mClint
Procedure: Samples of the tested compounds (0.5 μM) were preincubated together with human liver microsomes (0.25 mg of microsomal protein/mL) in 0.05 M potassium phosphate buffer of pH 7.4 in microtiter plates at 37° C. for 5 minutes. The reaction was started by adding NADPH (1.0 mM). After 0, 5, 10, 15, 20 and 30 minutes, an aliquot was removed, the reaction was cooled and stopped by adding twice the amount of quench solution consisting of acetonitrile/methanol 1:1, and containing 0.2 μM carbutamide as internal standard. The samples were frozen until analyzed. The remaining concentration of undegraded test substance was determined by liquid chromatography-tandem mass spectrometry (LC-MS/MS). The half-life (t1/2) was determined from the gradient of the ratio of the signal of (test substance/internal standard)/unit time plot, allowing the calculation of the half-life of the test substance, assuming first order kinetics, from the decrease in the concentration of the compound with time. The microsomal clearance (mClint) was calculated as follows: mClint=((ln(2)/t 1/2)/Microsomal Protein Concentration (mg/ml))*1000, leading to the unit of μL/min/mg.

T1 sequence (P50406 whole entry): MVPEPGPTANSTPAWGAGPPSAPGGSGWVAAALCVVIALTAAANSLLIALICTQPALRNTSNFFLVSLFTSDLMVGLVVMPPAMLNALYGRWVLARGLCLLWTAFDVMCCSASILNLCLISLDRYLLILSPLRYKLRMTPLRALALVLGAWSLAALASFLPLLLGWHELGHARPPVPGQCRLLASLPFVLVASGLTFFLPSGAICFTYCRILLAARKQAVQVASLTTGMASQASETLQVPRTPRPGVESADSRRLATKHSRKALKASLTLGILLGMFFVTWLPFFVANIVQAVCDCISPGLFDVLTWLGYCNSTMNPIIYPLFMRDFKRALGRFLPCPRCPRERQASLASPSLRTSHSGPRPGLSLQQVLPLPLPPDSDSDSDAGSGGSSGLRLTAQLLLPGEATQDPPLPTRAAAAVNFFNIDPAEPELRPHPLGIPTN

## O=C(O)C1CCCN(c2cccc3cc(S(=O)(=O)c4cccc(C(F)(F)F)c4)cnc23)C1 (centres unmarked) [Example 6, 1-[3-(3-Trifluoromethyl-benzenesulfonyl)-quinolin-8-yl]-piperidine-3-carboxylic Acid]
h-5-HT6 receptor
  pKi: 7.00 to 8.00
[1]
  microsomal CLint at 0.5 μM: < 30 µL/min/mg
